{
  "source": "patent US9700541B2",
  "about": "“Seizure therapy” (Creighton University, priority 2012, dated 2017)",
  "tested_on": "acute mouse hippocampal slices",
  "assay": "Extracellular recordings in CA3 stratum radiatum of acute hippocampal slices after complex I inhibition",
  "type": "cell-based",
  "procedure": "FIG. 5A depicts electrophysiological recordings showing inhibition of mitochondrial complex I of the electron transport chain creates a hyperexcitable environment in acute mouse hippocampal slices. Epilepsy is defined as a neuronal state of hyperexcitability and hypersynchrony. […] The middle trace is an expansion of field potential marked by an asterisk in the top trace. Time-frequency analysis was performed on the signals to examine the component frequencies occurring during the field potentials. High frequency oscillations (HF05) in the 100-200 Hz bandwidth (called ripples) are normal and reflect small clusters of neurons firing action potentials synchronously. […] Fast ripples occur in humans and animals with epilepsy and are biomarkers for seizure-genic foci.\nIn Kv1.1−/− hippocampal slices, pathological high frequency oscillations are prevalent throughout the in Kv1.1−/− hippocampal network. In addition, there is an increase in neurotransmitter release probabilities at specific hippocampal circuit synapses. To experimentally mimic the mitochondrial pathology seen in epilepsy, a drug that impairs mitochondrial function at respiratory complex I, rotenone, was applied to control tissue. […] Fast ripples occur in humans and animals with epilepsy and are biomarkers for seizure-genic foci.",
  "note": "Entries after “also recorded” stand apart in the source; their conditions may differ.",
  "data": [
    {"smiles": "C=C(C)[C@H]1Cc2c(ccc3c2O[C@@H]2COc4cc(OC)c(OC)cc4[C@@H]2C3=O)O1", "note": "[rotenone]", "values": [
      {"measurement": "promotion of seizures", "setting": "acute application of rotenone to control tissue", "result": "sufficient to promote seizures"},
      {"measurement": "rate and amplitudes of spontaneous field potentials", "setting": "rotenone 100 nM, 30 min application", "result": "increases"},
      {"measurement": "high frequency oscillations (fast ripples), spectral organization", "setting": "rotenone application, control tissue", "result": "spectral disorganization and the generation of faster HFOs; also recorded: promotes spectral disorganization and the generation of pathologic high frequency oscillations"},
      {"measurement": "intensity of ripples and fast ripples", "setting": "rotenone applied to slices", "result": "increases"},
      {"measurement": "seizure-like events following high potassium (8 mM)", "setting": "rotenone-treated vs vehicle-treated slice", "result": "greater in amplitude and longer in duration"}
    ]}
  ]
}
